Like-named read-outs stand apart in the source and are kept apart here.
System: panel of hematologic and solid cancer lines
Assay: 6-day in vitro growth/death assay
Format: cell-based, human
Conditions: read-out: gIC50
Protocol: To further develop these molecules and to guide clinical strategy, it was necessary to understand sensitivity in preclinical models by assessing the anti-tumour activity of the PRMT5 inhibitors in various cancers.
Cell lines were obtained from ATCC or DSMZ and were grown in recommended medium, which was most frequently RPMI-1640 containing 10% FBS. Cell line proliferation assays, Western blotting, qRT-PCR, and cell cycle analyses were performed as described previously[27],[28]. Antibody and gene expression reagents are as described in Supplementary Table 16. All studies were conducted in accordance with the GSK Policy on the Care, Welfare and Treatment of Laboratory Animals and were reviewed by the Institutional Animal Care and Use Committee either at GSK or by the ethical review process at the institution where the work was performed. Detailed descriptions of all methods can be found in the Supplemental Materials.

O=C(NC[C@H](O)CN1CCc2ccccc2C1)c1ccnc(NC2CCC2)c1 [GSK3203591]
IC50 5637: 143 nM | IC50 (A172): 590 nM | IC50 (BJAB): 3100 nM | IC50 (DOHH-2): 116 nM | IC50 (HCC70): 522 nM | IC50 (HCC1143): 509 nM | IC50 (HCC1806): 261 nM | IC50 (Homo sapiens, 1A2, 1A2): 333 nM | IC50 (Homo sapiens, 22Rv1, 22Rv1): 23500 nM | IC50 (Homo sapiens, 639-V): 731 nM | IC50 (Homo sapiens, 647-V): 426 nM | IC50 (Homo sapiens, 769-P): > 29300 nM | IC50 (Homo sapiens, 5637): 143 nM | IC50 (Homo sapiens, A 172, A172): 590 nM | IC50 (Homo sapiens, A204, A204): > 29000 nM | IC50 (Homo sapiens, A498, A498): 435 nM | IC50 (Homo sapiens, A549, A549): 837 nM | IC50 (Homo sapiens, A-375, A-375): 647 nM | IC50 (Homo sapiens, A-427, A427): 276 nM | IC50 (Homo sapiens, AML-193): 1400 nM | IC50 (Homo sapiens, AMO1, AMO-1): 337 nM | IC50 (Homo sapiens, ARH-77, ARH-77): 238 nM | IC50 (Homo sapiens, ASPC1, ASPC1): 424 nM | IC50 (Homo sapiens, BC-3C): 408 nM | IC50 (Homo sapiens, BFTC-905, BFTC-905): 440 nM | IC50 (Homo sapiens, BJAB): 3100 nM | IC50 (Homo sapiens, BT-20, BT-20): 8160 nM | IC50 (Homo sapiens, BT-474, BT-474): 5740 nM | IC50 (Homo sapiens, BT-549, BT549): 17800 nM | IC50 (Homo sapiens, CA46, CA-46): 580 nM | IC50 (Homo sapiens, CAKI-1, Caki-1): 578 nM | IC50 (Homo sapiens, CAL-29): 817 nM | IC50 (Homo sapiens, CAL-51, CAL-51): 2300 nM | IC50 (Homo sapiens, CAL-85-1, CAL-85-1): 1740 nM | IC50 (Homo sapiens, CAMA-1, CAMA-1): 7330 nM | IC50 (Homo sapiens, CAPAN-1, CAPAN1): 1110 nM | IC50 (Homo sapiens, CHP-212, CHP-212): 16.3 nM | IC50 (Homo sapiens, COLO 201, Colo 201): 661 nM | IC50 (Homo sapiens, COLO 205, Colo 205): 694 nM | IC50 (Homo sapiens, COLO 320DM, COLO-320DM): 2350 nM | IC50 (Homo sapiens, COLO-320-HSR, Colo 320 HSR): 2220 nM | IC50 (Homo sapiens, COLO-741, COLO-741): 2910 nM | IC50 (Homo sapiens, COR-L23, COR-L23): 786 nM | IC50 (Homo sapiens, COR-L105, COR-L105): > 29300 nM | IC50 (Homo sapiens, Caco-2, CaCo-2): 740 nM | IC50 (Homo sapiens, Calu-1, Calu1): > 29300 nM | IC50 (Homo sapiens, Calu-6, Calu6): 1280 nM | IC50 (Homo sapiens, Capan-2, CAPAN2): 1060 nM | IC50 (Homo sapiens, ChaGo-K-1, Cha-Go-K1): 2820 nM | IC50 (Homo sapiens, DB): 346 nM | IC50 (Homo sapiens, DBTRG-05MG, DBTRG05MG): > 29300 nM | IC50 (Homo sapiens, DLD-1, DLD-1): 2430 nM | IC50 (Homo sapiens, DMS-114, DMS114): 9170 nM | IC50 (Homo sapiens, DMS-273, DMS273): 262 nM | IC50 (Homo sapiens, DOHH-2, DOHH-2): 116 nM | IC50 (Homo sapiens, DU-145, DU145): 3720 nM | IC50 (Homo sapiens, DU-4475, DU-4475): 1010 nM | IC50 (Homo sapiens, EBC-1, EBC-1): 239 nM | IC50 (Homo sapiens, EFM-19, EFM-19): 162 nM | IC50 (Homo sapiens, F-36P): 1880 nM | IC50 (Homo sapiens, G-361, G-361): 4360 nM | IC50 (Homo sapiens, G-401, G-401): 189 nM | IC50 (Homo sapiens, GDM-1, GDM-1): 42.3 nM | IC50 (Homo sapiens, GF-D8): 33200 nM | IC50 (Homo sapiens, HCC38, HCC38): 127 nM | IC50 (Homo sapiens, HCC70, HCC70): 522 nM | IC50 (Homo sapiens, HCC827, HCC827): 21000 nM | IC50 (Homo sapiens, HCC1143, HCC1143): 509 nM | IC50 (Homo sapiens, HCC1395, HCC1395): 14700 nM | IC50 (Homo sapiens, HCC1569, HCC1569): 11300 nM | IC50 (Homo sapiens, HCC1806, HCC1806): 261 nM | IC50 (Homo sapiens, HCC1937, HCC1937): 956 nM | IC50 (Homo sapiens, HCC2935, HCC2935): 21600 nM | IC50 (Homo sapiens, HCC4006, HCC4006): 170 nM | IC50 (Homo sapiens, HCT-15, HCT-15): 1250 nM | IC50 (Homo sapiens, HCT-116, HCT-116): 10000 nM | IC50 (Homo sapiens, HD-MY-Z): 143 nM | IC50 (Homo sapiens, HEL 92.1.7, HEL 92.1.7): 12400 nM | IC50 (Homo sapiens, HL-60, HL60): 4270 nM | IC50 (Homo sapiens, HOS): > 29000 nM | IC50 (Homo sapiens, HPAC): 901 nM | IC50 (Homo sapiens, HPAF-II, HPAFII): 957 nM | IC50 (Homo sapiens, HT115, HT115): 1740 nM | IC50 (Homo sapiens, HT-29, HT-29): 1810 nM | IC50 (Homo sapiens, HT-144, HT-144): 1050 nM | IC50 (Homo sapiens, HT-1376, HT-1376): 13100 nM | IC50 (Homo sapiens, HT): 272 nM | IC50 (Homo sapiens, Hs 445, Hs445): 976 nM | IC50 (Homo sapiens, Hs766T): 1970 nM | IC50 (Homo sapiens, Hs-578T, Hs578t): 18200 nM | IC50 (Homo sapiens, HuNS1, Huns1): 887 nM | IC50 (Homo sapiens, HuP-T3, HuP-T3): 3390 nM | IC50 (Homo sapiens, HuP-T4, HuP-T4): 190 nM | IC50 (Homo sapiens, HuT78, HuT78): 103 nM | IC50 (Homo sapiens, IGR-1, IGR-1): 8760 nM | IC50 (Homo sapiens, IGROV-1, IGROV-1): 189 nM | IC50 (Homo sapiens, J82, J82): 20900 nM | IC50 (Homo sapiens, JJN-3, JJN3): 164 nM | IC50 (Homo sapiens, JM1, JM1): 75.8 nM | IC50 (Homo sapiens, JMSU-1, JMSU-1): 583 nM | IC50 (Homo sapiens, JVM-2, JVM-2): 172 nM | IC50 (Homo sapiens, JY): 95.1 nM | IC50 (Homo sapiens, JeKo-1, JeKo-1): 6190 nM | IC50 (Homo sapiens, K562, K562): 310 nM | IC50 (Homo sapiens, KMS-11, KMS-11): 46.8 nM | IC50 (Homo sapiens, KMS-12-BM): 190 nM | IC50 (Homo sapiens, KO52): 513 nM | IC50 (Homo sapiens, KP-3): 99.9 nM | IC50 (Homo sapiens, KP-4, KP-4): 20800 nM | IC50 (Homo sapiens, KPL-1, KPL-1): 4110 nM | IC50 (Homo sapiens, KS-1): 85.5 nM | IC50 (Homo sapiens, KU-19-19, KU-19-19): 1110 nM | IC50 (Homo sapiens, Kasumi 1, KASUMI-1): 13200 nM | IC50 (Homo sapiens, L-363, L363): 65.7 nM | IC50 (Homo sapiens, L-428, L-428): 665 nM | IC50 (Homo sapiens, LC-1sq): 7590 nM | IC50 (Homo sapiens, LK-2, LK2): 89.9 nM | IC50 (Homo sapiens, LN-18, LN-18): 9680 nM | IC50 (Homo sapiens, LN-229, LN-229): 1150 nM | IC50 (Homo sapiens, LNCaP): 18900 nM | IC50 (Homo sapiens, LP-1, LP1): 975 nM | IC50 (Homo sapiens, LS-411N, Ls411N): 442 nM | IC50 (Homo sapiens, LoVo): 494 nM | IC50 (Homo sapiens, Lu-65, LU65): 463 nM | IC50 (Homo sapiens, Lu-99, LU-99): 5300 nM | IC50 (Homo sapiens, M059J): 18900 nM | IC50 (Homo sapiens, M059K): 7890 nM | IC50 (Homo sapiens, MC116, MC116): 82 nM | IC50 (Homo sapiens, MC/CAR): 2740 nM | IC50 (Homo sapiens, MCF7, MCF-7): 215 nM | IC50 (Homo sapiens, MDA-MB-157, MDA-MB-157): 3250 nM | IC50 (Homo sapiens, MDA-MB-231, MDA-MB-231): 2930 nM | IC50 (Homo sapiens, MDA-MB-435S): 2220 nM | IC50 (Homo sapiens, MDA-MB-436, MDA-MB-436): 7130 nM | IC50 (Homo sapiens, MDA-MB-453, MDA-MB-453): 343 nM | IC50 (Homo sapiens, MDA-MB-468, MDA-MB-468): 585 nM | IC50 (Homo sapiens, ME-1, ME1): 2450 nM | IC50 (Homo sapiens, MEL-HO): 1550 nM | IC50 (Homo sapiens, MEL-JUSO): 79.3 nM | IC50 (Homo sapiens, MHH-PREB-1, MHH-PREB-1): 3300 nM | IC50 (Homo sapiens, MIA PaCa-2, Miapaca-2): 263 nM | IC50 (Homo sapiens, MINO): 536 nM | IC50 (Homo sapiens, ML-2, ML-2): 115 nM | IC50 (Homo sapiens, MOLM16, MOLM-16): 31000 nM | IC50 (Homo sapiens, MOLM-13, MOLM-13): 86.2 nM | IC50 (Homo sapiens, MOLP-2, MOLP-2): 22100 nM | IC50 (Homo sapiens, MONO-MAC-6, MonoMac6): 196 nM | IC50 (Homo sapiens, MV4-11, MV-4-11): 94.7 nM | IC50 (Homo sapiens, Maver1, MAVER-1): 133 nM | IC50 (Homo sapiens, NALM-6, NALM-6): 1060 nM | IC50 (Homo sapiens, NB-4, NB-4): 80.9 nM | IC50 (Homo sapiens, NCI-H146, NCI-H146): 411 nM | IC50 (Homo sapiens, NCI-H292, NCI-H292): 1340 nM | IC50 (Homo sapiens, NCI-H322, NCI-H322): 1700 nM | IC50 (Homo sapiens, NCI-H441, NCI-H441): 22400 nM | IC50 (Homo sapiens, NCI-H520, NCI-H520): 26.1 nM | IC50 (Homo sapiens, NCI-H522, NCI-H522): > 29300 nM | IC50 (Homo sapiens, NCI-H526, NCI-H526): 138 nM | IC50 (Homo sapiens, NCI-H526-R): 219 nM | IC50 (Homo sapiens, NCI-H647, NCI-H647): 2530 nM | IC50 (Homo sapiens, NCI-H661, NCI-H661): 30800 nM

Source: publication PMC6018746, “Activation of the p53-MDM4 regulatory axis defines the anti-tumour response to PRMT5 inhibition through its role in regulating cellular splicing” (Scientific Reports, 2018)
